Measured values published in PubChem BioAssay AID248 (DTP/NCI, 2004).
Values joined by “and” are separate entries in the source; they are usually repeats but may differ in a detail not shown here. Equal values may be shown once. Toxic doses and inconclusive results are not listed. Cut-off read from the data, not from the text of the source: active = T/C of 150% or more; inactive = T/C below 125%.

System: L1210 leukemia ip in BDF1 mice, survival T/C
Assay: NCI In Vivo Anticancer Drug Screen. Data for tumor model L1210 Leukemia (intraperitoneal) in B6D2F1 (BDF1) mice
Details: endpoint: mean survival time, higher = longer survival
Procedure, shortened: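 Transplantable tumor model; survival measured in treated vs vehicle control mice. Value = treated/control.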

[1] = dose: 100.0 mg/kg/injection, schedule: Q01DX001 (ip), vehicle: saline
[2] = dose: 200.0 mg/kg/injection, schedule: Q01DX001 (ip), vehicle: saline
[3] = dose: 400.0 mg/kg/injection, schedule: Q01DX001 (ip), vehicle: saline
[4] = dose: 100.0 mg/kg/injection, schedule: Q01DX009 (ip), vehicle: saline with Tween-80
[5] = dose: 200.0 mg/kg/injection, schedule: Q01DX009 (ip), vehicle: saline with Tween-80
[6] = dose: 100.0 mg/kg/injection, schedule: Q01DX001 (ip), vehicle: Klucel (hydroxypropylcellulose) (HPC)
[7] = dose: 200.0 mg/kg/injection, schedule: Q01DX001 (ip), vehicle: Klucel (hydroxypropylcellulose) (HPC)
[8] = dose: 400.0 mg/kg/injection, schedule: Q01DX001 (ip), vehicle: Klucel (hydroxypropylcellulose) (HPC)
[9] = dose: 100.0 mg/kg/injection, schedule: Q04DX002 (ip), vehicle: carboxymethylcellulose (CMC)
[10] = dose: 200.0 mg/kg/injection, schedule: Q04DX002 (ip), vehicle: carboxymethylcellulose (CMC)
[11] = dose: 400.0 mg/kg/injection, schedule: Q04DX002 (ip), vehicle: carboxymethylcellulose (CMC)

Measured: T/C

NC(=S)N/N=C(\c1ccccc1)c1ccccn1
inactive: dose: 12.5 mg/kg/injection, schedule: Q01DX009 (ip), vehicle: gum acacia 101 % of control | dose: 25.0 mg/kg/injection, schedule: Q01DX001 (ip), vehicle: gum acacia 100 % of control | dose: 25.0 mg/kg/injection, schedule: Q01DX009 (ip), vehicle: gum acacia 95 % of control | dose: 25.0 mg/kg/injection, schedule: Q04DX003 (ip), vehicle: gum acacia 105 % of control | dose: 50.0 mg/kg/injection, schedule: Q01DX001 (ip), vehicle: gum acacia 106 % of control | dose: 50.0 mg/kg/injection, schedule: Q01DX009 (ip), vehicle: gum acacia 93 % of control | dose: 50.0 mg/kg/injection, schedule: Q04DX003 (ip), vehicle: gum acacia 100 % of control | dose: 100.0 mg/kg/injection, schedule: Q01DX001 (ip), vehicle: gum acacia 95 % of control

Nc1ncnn1Cc1ccccc1
inactive: [1] 96 % of control | dose: 100.0 mg/kg/injection, schedule: Q04DX003 (ip), vehicle: saline 101 % of control | [2] 97 % of control | dose: 200.0 mg/kg/injection, schedule: Q04DX003 (ip), vehicle: saline 106 % of control | [3] 100 % of control | dose: 400.0 mg/kg/injection, schedule: Q04DX003 (ip), vehicle: saline 101 % of control

C/C(CC(C)C)=N\NC(=O)Nc1ccccc1Cl
inactive: dose: 100.0 mg/kg/injection, schedule: Q01DX009 (ip), vehicle: other 102 % of control | dose: 200.0 mg/kg/injection, schedule: Q01DX009 (ip), vehicle: other 89 % of control | dose: 400.0 mg/kg/injection, schedule: Q01DX009 (ip), vehicle: other 102 % of control

O=S(=O)(Cl)c1ccc2cc3ccccc3cc2c1
inactive: dose: 50.0 mg/kg/injection, schedule: Q01DX009 (ip), vehicle: saline with Tween-80 98 % of control | [4] 96 % of control | [5] 102 % of control

CN(C=O)C(=S)[S][Sb]([S]C(=S)N(C)C=O)[S]c1nc2ccc(N=Nc3ccc(NS(=O)(=O)c4ccc(NC(=O)C(Cl)Cl)cc4)cc3)cc2s1
inactive: dose: 100.0 mg/kg/injection, schedule: Q01DX001 (ip), vehicle: steriod suspending solution 101 % of control

O=[N+]([O-])c1cccc(OCCCc2ccccc2)c1
inactive: [4] 98 % of control | [5] 102 % of control | dose: 400.0 mg/kg/injection, schedule: Q01DX009 (ip), vehicle: saline with Tween-80 112 % of control

CCCCCCCCCCCSCCSCCSCCCCCCCCCCC
inactive: [6] 88 % of control | [7] 95 % of control | [8] 90 % of control

CCOC(=O)c1cnc(NN)[nH]c1=O
inactive: dose: 100.0 mg/kg/injection, schedule: Q04DX003 (ip), vehicle: Klucel (hydroxypropylcellulose) (HPC) 97 % of control | dose: 200.0 mg/kg/injection, schedule: Q04DX003 (ip), vehicle: Klucel (hydroxypropylcellulose) (HPC) 97 % of control

CCOC(=O)C1CCC(C(=O)OCC)N1C (stereo unspecified)
inactive: [1] 97 % of control | dose: 100.0 mg/kg/injection, schedule: Q01DX009 (ip), vehicle: saline 96 % of control | [2] 88 % of control | dose: 200.0 mg/kg/injection, schedule: Q01DX009 (ip), vehicle: saline 98 % of control | [3] 95 % of control | dose: 400.0 mg/kg/injection, schedule: Q01DX009 (ip), vehicle: saline 100 % of control

CC(C(=O)O)N(CC(=O)O)CC(=O)O.[Co+2].[NH-]CC(=O)O (stereo unspecified)
inactive: dose: 6.25 mg/kg/injection, schedule: Q01DX009 (ip), vehicle: water 106 % of control and 89 % of control | dose: 12.5 mg/kg/injection, schedule: Q01DX009 (ip), vehicle: water 93 % of control and 106 % of control and 124 % of control | dose: 25.0 mg/kg/injection, schedule: Q01DX009 (ip), vehicle: water 102 % of control and 109 % of control | dose: 50.0 mg/kg/injection, schedule: Q01DX009 (ip), vehicle: water 109 % of control and 114 % of control | dose: 100.0 mg/kg/injection, schedule: Q04DX003 (ip), vehicle: water 107 % of control | dose: 200.0 mg/kg/injection, schedule: Q04DX003 (ip), vehicle: water 105 % of control

N#CC(SC(=N)N)c1ccccc1 (stereo unspecified)
inactive: [1] 103 % of control | [2] 96 % of control

CN(C)P(N(C)C)N(C)C
inactive: dose: 50.0 mg/kg/injection, schedule: Q01DX001 (ip), vehicle: saline 104 % of control | [1] 95 % of control | [2] 93 % of control | [3] 101 % of control

COC1=Nc2ccccc2/C=C\c2ccccc21
inactive: [9] 96 % of control | [10] 89 % of control | [11] 89 % of control

CC(C)C(=O)NC(Cc1ccccc1)C(=O)N(Cc1ccccc1)N=O (stereo unspecified)
inactive: dose: 32.0 mg/kg/injection, schedule: Q04DX002 (ip), vehicle: Klucel (hydroxypropylcellulose) (HPC) 94 % of control | dose: 63.0 mg/kg/injection, schedule: Q04DX002 (ip), vehicle: Klucel (hydroxypropylcellulose) (HPC) 97 % of control | dose: 125.0 mg/kg/injection, schedule: Q04DX002 (ip), vehicle: Klucel (hydroxypropylcellulose) (HPC) 94 % of control

c1ccc(-c2ccc(-c3cnc(-c4ccccc4)[nH]3)cc2)cc1
inactive: dose: 100.0 mg/kg/injection, schedule: Q01DX001 (ip), vehicle: saline with Tween-80 95 % of control | dose: 200.0 mg/kg/injection, schedule: Q01DX001 (ip), vehicle: saline with Tween-80 92 % of control | dose: 400.0 mg/kg/injection, schedule: Q01DX001 (ip), vehicle: saline with Tween-80 92 % of control

N=c1c2ncn(Cc3cccc(C(F)(F)F)c3)c2ncn1O
inactive: dose: 0.78 mg/kg/injection, schedule: Q01DX009 (ip), vehicle: Klucel (hydroxypropylcellulose) (HPC) 104 % of control | dose: 1.56 mg/kg/injection, schedule: Q01DX009 (ip), vehicle: Klucel (hydroxypropylcellulose) (HPC) 92 % of control | dose: 1.56 mg/kg/injection, schedule: Q04DX003 (ip), vehicle: Klucel (hydroxypropylcellulose) (HPC) 92 % of control | dose: 3.12 mg/kg/injection, schedule: Q01DX009 (ip), vehicle: Klucel (hydroxypropylcellulose) (HPC) 95 % of control | dose: 3.12 mg/kg/injection, schedule: Q04DX003 (ip), vehicle: Klucel (hydroxypropylcellulose) (HPC) 102 % of control

C=C(OCC)P(=O)(OCCCC)OCCCC
inactive: dose: 100.0 mg/kg/injection, schedule: Q04DX002 (ip), vehicle: saline with Tween-80 100 % of control | dose: 200.0 mg/kg/injection, schedule: Q04DX002 (ip), vehicle: saline with Tween-80 90 % of control | dose: 400.0 mg/kg/injection, schedule: Q04DX002 (ip), vehicle: saline with Tween-80 93 % of control

CCCCCCCC(=O)N(CCCCC)CCCCC
inactive: dose: 100.0 mg/kg/injection, schedule: Q01DX001 (ip), vehicle: carboxymethylcellulose (CMC) 99 % of control | dose: 100.0 mg/kg/injection, schedule: Q01DX009 (ip), vehicle: carboxymethylcellulose (CMC) 93 % of control and 101 % of control | [9] 97 % of control | dose: 100.0 mg/kg/injection, schedule: Q04DX003 (ip), vehicle: carboxymethylcellulose (CMC) 101 % of control | dose: 200.0 mg/kg/injection, schedule: Q01DX001 (ip), vehicle: carboxymethylcellulose (CMC) 96 % of control | dose: 200.0 mg/kg/injection, schedule: Q01DX009 (ip), vehicle: carboxymethylcellulose (CMC) 97 % of control and 90 % of control | [10] 107 % of control | dose: 200.0 mg/kg/injection, schedule: Q04DX003 (ip), vehicle: carboxymethylcellulose (CMC) 98 % of control | dose: 400.0 mg/kg/injection, schedule: Q01DX001 (ip), vehicle: carboxymethylcellulose (CMC) 91 % of control | [11] 96 % of control | dose: 400.0 mg/kg/injection, schedule: Q04DX003 (ip), vehicle: carboxymethylcellulose (CMC) 102 % of control

O=C(Nc1cccc(C(F)(F)F)c1)Nc1cccc(C(F)(F)F)c1
inactive: [6] 94 % of control and 91 % of control | dose: 100.0 mg/kg/injection, schedule: Q04DX003 (ip), vehicle: saline with Tween-80 97 % of control and 87 % of control | [7] 98 % of control | dose: 200.0 mg/kg/injection, schedule: Q04DX003 (ip), vehicle: saline with Tween-80 99 % of control and 87 % of control | [8] 94 % of control | dose: 400.0 mg/kg/injection, schedule: Q04DX003 (ip), vehicle: saline with Tween-80 97 % of control and 89 % of control
